Results: the Kinase Knowledgebase extract (Sharma et al. 2016)
Values joined by “and” are separate entries in the source; they are usually repeats but may differ in a detail not shown here. Equal entries are not always repeated. Values belong to the compound of their own block, whether it stands above or below them.

Legend:
[1] = target: PIK3CB;PIK3CD;PIK3CA (human) (UniProt O00329); experiment: Assessment of PI3K Kinase Activity
[2] = target: EGFR (UniProt P00533)
[3] = target: PIK3CA (bovine) (UniProt P32871); experiment: Inhibition of PIK3CA Kinase Activity
[4] = target: EGFR (human) (UniProt P00533); conditions: concentration not given here
[5] = target: EGFR (human) (UniProt P00533)
[6] = target: MAPK14 (human) (UniProt Q16539); experiment: Inhibition of MAPK14 Kinase Activity
[7] = target: EGFR (human) (UniProt P00533); remark: listed apart in the source
[8] = target: EGFR (UniProt P00533); remark: listed apart in the source
[9] = target: CDK2 (UniProt P24941); experiment: Enzyme Assay; conditions: concentration not given here
[10] = target: ROCK2 (UniProt O75116); experiment: ROCK2 Kinase Inhibition; conditions: concentration not given here
[11] = target: MAPK14 (UniProt Q16539); experiment: p38-alpha Kinase Inhibition; conditions: concentration not given here
[12] = target: EGFR (human) (UniProt P00533); conditions: concentration not given here; remark: listed apart in the source
[13] = target: EGFR (UniProt P00533); conditions: a431
[14] = target: EGFR (UniProt P00533); conditions: swiss 3t3 fibroblast
[15] = target: EGFR (human) (UniProt P00533); conditions: kb
[16] = target: EGFR (UniProt P00533); remark: listed apart in the source
[17] = target: EGFR (human) (UniProt P00533); remark: listed apart in the source
[18] = target: EGFR (human) (UniProt P00533); conditions: a431
[19] = target: EGFR (UniProt P00533); remark: listed apart in the source
[20] = target: EGFR (UniProt P00533); remark: listed apart in the source
[21] = target: EGFR (human) (UniProt P00533); conditions: a431; remark: listed apart in the source
[22] = target: PIK3CB;PIK3CG;PIK3CD;PIK3CA (human) (UniProt P48736); experiment: Antiproliferation of Anti-IgM stimulated Human B Cells by PI3K Inhibitors
[23] = target: EGFR (human) (UniProt P00533); remark: listed apart in the source
[24] = target: EGFR (human) (UniProt P00533); remark: listed apart in the source
[25] = target: MAPK14 (human) (UniProt Q16539); experiment: Inhibition of IL-beta Production in LPS Stimulated Whole Blood; conditions: blood cells
[26] = target: MAPK14 (human) (UniProt Q16539); experiment: Inhibition of TNF-alpha Production in LPS Stimulated Whole Blood; conditions: blood cells
[27] = target: EGFR (UniProt P00533); remark: listed apart in the source
[28] = target: EGFR (human) (UniProt P00533); remark: listed apart in the source

Chain of MAPK14 (human) (Q16539 whole entry, looked up): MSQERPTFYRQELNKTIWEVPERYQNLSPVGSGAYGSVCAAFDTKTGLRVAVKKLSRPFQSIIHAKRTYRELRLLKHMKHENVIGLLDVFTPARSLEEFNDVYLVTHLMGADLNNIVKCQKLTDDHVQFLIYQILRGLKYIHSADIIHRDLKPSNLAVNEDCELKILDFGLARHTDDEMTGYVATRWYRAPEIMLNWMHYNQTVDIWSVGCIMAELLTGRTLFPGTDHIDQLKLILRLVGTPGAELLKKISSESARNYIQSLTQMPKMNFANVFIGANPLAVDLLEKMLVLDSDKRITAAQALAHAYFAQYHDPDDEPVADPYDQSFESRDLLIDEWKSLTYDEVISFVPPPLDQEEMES
Chain of EGFR (P00533 whole entry, looked up): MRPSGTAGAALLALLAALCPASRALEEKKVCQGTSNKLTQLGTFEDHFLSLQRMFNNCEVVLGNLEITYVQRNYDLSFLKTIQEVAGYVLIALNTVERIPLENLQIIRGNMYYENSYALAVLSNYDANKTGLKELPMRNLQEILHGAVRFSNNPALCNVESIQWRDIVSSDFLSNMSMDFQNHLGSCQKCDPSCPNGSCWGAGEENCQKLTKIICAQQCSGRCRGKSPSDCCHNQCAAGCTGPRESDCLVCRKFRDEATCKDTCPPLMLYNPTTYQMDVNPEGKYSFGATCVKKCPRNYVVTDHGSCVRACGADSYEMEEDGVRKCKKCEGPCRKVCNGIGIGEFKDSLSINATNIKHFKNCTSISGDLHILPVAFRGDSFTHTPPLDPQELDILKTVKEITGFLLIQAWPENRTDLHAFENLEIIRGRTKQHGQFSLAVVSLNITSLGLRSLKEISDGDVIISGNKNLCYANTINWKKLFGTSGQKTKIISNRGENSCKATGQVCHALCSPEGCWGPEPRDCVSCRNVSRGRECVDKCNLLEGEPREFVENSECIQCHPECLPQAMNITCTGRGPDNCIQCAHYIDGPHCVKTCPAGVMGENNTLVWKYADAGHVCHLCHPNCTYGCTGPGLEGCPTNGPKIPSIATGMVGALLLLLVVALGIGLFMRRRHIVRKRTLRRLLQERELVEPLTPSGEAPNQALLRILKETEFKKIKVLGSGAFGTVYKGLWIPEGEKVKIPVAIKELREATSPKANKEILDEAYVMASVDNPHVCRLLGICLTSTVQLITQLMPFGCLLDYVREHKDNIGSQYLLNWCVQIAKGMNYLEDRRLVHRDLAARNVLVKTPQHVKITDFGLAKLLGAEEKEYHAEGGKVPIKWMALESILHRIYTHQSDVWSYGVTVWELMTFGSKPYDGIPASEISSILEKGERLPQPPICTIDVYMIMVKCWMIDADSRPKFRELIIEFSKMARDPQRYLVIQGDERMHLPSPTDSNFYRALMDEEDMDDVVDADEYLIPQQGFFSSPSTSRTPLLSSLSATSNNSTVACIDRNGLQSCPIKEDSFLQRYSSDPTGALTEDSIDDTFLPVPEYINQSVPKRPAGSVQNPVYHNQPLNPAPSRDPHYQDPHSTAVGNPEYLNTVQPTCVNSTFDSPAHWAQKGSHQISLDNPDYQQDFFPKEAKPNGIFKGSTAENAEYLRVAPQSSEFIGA
Chain of EGFR (human) (P00533 whole entry, looked up): as above
Chain of PIK3CB;PIK3CD;PIK3CA (human) (O00329 whole entry, looked up): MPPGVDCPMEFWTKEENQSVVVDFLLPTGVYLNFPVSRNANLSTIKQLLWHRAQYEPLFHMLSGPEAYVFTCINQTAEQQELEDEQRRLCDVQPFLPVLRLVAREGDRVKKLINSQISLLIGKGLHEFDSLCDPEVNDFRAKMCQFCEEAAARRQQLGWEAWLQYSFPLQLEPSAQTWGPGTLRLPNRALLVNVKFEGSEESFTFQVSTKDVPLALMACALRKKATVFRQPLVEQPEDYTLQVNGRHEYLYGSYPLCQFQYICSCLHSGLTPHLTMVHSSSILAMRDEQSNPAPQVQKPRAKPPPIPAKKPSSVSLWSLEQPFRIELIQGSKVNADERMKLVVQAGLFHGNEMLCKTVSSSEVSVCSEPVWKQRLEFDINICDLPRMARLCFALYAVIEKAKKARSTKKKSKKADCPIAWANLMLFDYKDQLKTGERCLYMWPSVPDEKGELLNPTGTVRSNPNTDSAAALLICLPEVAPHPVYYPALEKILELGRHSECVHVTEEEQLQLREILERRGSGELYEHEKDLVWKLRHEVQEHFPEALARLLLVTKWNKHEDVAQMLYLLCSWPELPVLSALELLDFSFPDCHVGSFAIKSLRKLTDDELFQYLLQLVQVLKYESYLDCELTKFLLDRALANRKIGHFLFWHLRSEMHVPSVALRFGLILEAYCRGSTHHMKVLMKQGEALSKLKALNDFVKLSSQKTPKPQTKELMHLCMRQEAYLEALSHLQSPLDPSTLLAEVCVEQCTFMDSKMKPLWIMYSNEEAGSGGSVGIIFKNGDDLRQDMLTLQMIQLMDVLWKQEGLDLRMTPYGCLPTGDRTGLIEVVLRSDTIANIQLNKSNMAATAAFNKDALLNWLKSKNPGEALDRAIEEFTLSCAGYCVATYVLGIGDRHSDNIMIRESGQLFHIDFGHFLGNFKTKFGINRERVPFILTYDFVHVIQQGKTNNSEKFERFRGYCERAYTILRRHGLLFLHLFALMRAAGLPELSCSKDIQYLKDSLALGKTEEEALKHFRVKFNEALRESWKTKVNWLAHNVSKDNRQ
Chain of MAPK14 (Q16539 whole entry, looked up): as the sequence (Q16539 whole entry, looked up) above
Chain of PIK3CA (bovine) (P32871 whole entry, looked up): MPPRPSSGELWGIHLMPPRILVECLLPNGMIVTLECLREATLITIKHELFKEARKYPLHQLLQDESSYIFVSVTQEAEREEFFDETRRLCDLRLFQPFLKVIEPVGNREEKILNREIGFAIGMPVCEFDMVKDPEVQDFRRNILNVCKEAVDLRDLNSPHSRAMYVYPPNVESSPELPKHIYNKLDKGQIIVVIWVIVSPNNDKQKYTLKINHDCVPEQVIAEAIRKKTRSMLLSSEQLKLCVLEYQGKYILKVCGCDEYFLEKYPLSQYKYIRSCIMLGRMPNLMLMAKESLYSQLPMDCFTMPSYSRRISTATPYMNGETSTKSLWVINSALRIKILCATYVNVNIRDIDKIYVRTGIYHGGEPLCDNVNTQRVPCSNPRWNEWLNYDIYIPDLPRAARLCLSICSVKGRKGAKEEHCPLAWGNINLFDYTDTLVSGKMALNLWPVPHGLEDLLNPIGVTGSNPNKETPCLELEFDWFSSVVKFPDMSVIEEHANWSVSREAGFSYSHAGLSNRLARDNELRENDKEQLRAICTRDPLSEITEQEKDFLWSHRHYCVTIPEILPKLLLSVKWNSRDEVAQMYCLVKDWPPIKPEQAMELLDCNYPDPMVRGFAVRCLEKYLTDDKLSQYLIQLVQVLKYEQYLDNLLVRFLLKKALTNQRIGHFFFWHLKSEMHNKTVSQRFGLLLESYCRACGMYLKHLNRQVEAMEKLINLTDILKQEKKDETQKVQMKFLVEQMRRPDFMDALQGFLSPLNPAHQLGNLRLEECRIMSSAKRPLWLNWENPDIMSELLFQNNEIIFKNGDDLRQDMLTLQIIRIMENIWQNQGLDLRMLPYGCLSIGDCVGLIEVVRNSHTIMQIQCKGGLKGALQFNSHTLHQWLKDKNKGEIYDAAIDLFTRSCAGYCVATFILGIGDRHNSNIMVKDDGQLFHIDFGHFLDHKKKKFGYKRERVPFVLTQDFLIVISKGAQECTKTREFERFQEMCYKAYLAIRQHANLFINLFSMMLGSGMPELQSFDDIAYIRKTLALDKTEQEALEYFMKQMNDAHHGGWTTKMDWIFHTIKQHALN

SMILES: CS(=O)(=O)Cc1cc(N2CCOCC2)nc(-c2ccc(NS(C)(=O)=O)cc2)n1
IC50 [1]: 54000 nM

SMILES: O=C1Nc2ccccc2C1=Cc1ccc(O)cc1O
IC50 [2]: < 3900 nM

SMILES: COc1ccc(C=C2C(=O)Nc3ccccc32)cc1F
IC50 [2]: 3700 to 37000 nM

SMILES: COCCOc1cc2ncnc(NC3=CC(=O)C(OCc4ccccc4)=CC3=O)c2cc1OC
inhibition [4]: -30%

SMILES: CCN(c1ccc(N2CCOCC2)cc1)c1ncnc2nc(Nc3ccc(S(N)(=O)=O)cc3)sc12
IC50 [5]: 10100 nM

SMILES: CN1CCC(c2[nH]nc(-c3ccc(Cl)cc3)c2-c2ccncn2)CC1
IC50 [6]: 48 nM
IC50 [7]: < 1000 nM

SMILES: CN1CCCC1CCn1cc(C2=C(c3c[nH]c4ccccc34)C(=O)NC2=O)c2ccccc21 (centres undefined)
activity [9]: 25%
activity [10]: 82%
activity [11]: 86%

SMILES: COc1ccc2[nH]c3c(-c4ccccc4OC)nc4c(c3c2c1)C(=O)NC4=O
IC50 [13]: > 30000 nM
IC50 [14]: > 30000 nM

SMILES: O=S(=O)(CCc1cccc(C(F)(F)F)c1)Cc1cc(N2CCOCC2)nc(-c2ccccn2)n1
IC50 [1]: 6800 nM

SMILES: Cc1cc2c(F)c(Nc3ncnc4cc(OCCCN5CCCC5)c(OCCCCCC(=O)NO)cc34)ccc2[nH]1
IC50 [17]: ≤ 100 nM

SMILES: C=C=CCCCOc1cc2c(Nc3ccc(F)c(Cl)c3)ncnc2cc1OC
GI50 [18]: 268 nM

SMILES: CN(C)c1ccc(C=C2C(=O)Nc3ccccc32)c2ccccc12
IC50 [2]: 3200 to 32000 nM

SMILES: COc1cc2ncnc(Nc3cccc(Cl)c3F)c2cc1O[C@H]1CCN(C)[C@H](C(N)=O)C1
IC50 [15]: 56 nM

SMILES: N#C/C(=C\c1ccc(O)c(O)c1)C(=O)O
Ki [21]: 23600 nM

SMILES: C[C@H](Nc1ncnc2[nH]cnc12)C1=C(c2ccccc2)[NH+]([O-])c2cc(F)ccc2C1 (some centres undefined)
IC50 [22]: 4.64 nM

SMILES: Cn1cc(C2=C(c3cn(CCCN)c4ccccc34)C(=O)NC2=O)c2ccccc21
activity [9]: 34%
activity [10]: 33%
activity [11]: 38%

SMILES: COc1ccc2[nH]c3c(-c4ccccc4)nc4c(c3c2c1)C(=O)NC4=O
IC50 [13]: > 30000 nM
IC50 [14]: 8900 nM

SMILES: O=S(=O)(CCNCCCc1ccc(-c2ccc3ncnc(Nc4ccc(OCc5ccccc5)c(Cl)c4)c3c2)o1)c1ccccc1
IC50 [24]: 50 nM

Continued, in another order:

IC50 [3]: > 30000 nM
SMILES: c1cnc2[nH]c3c(N4CCOCC4)ncnc3c2c1

IC50 [1]: 57800 nM and 91200 nM
SMILES: Cc1cc(NC(=O)Nc2ccc(-c3nc(CS(C)(=O)=O)cc(N4CCOCC4)n3)cc2)no1

IC50 [3]: 100 nM
SMILES: COc1cccc(-c2nc(N3CCOCC3)c3oc4ncccc4c3n2)c1

IC50 [8]: 7 nM
SMILES: CNc1ccc2ncnc(Nc3cccc(Br)c3)c2c1

inhibition [12]: < 50%
SMILES: Cc1nc2c(NC(C)(C)C)nc(Nc3ccc4ncsc4c3)nc2[nH]1

IC50 [15]: 61 nM
SMILES: CNC(=O)[C@@H]1C[C@@H](Oc2cc3c(Nc4cccc(Cl)c4F)ncnc3cc2OC)CCN1C

IC50 [16]: 180 nM
SMILES: COc1ccc(Nc2ncc3c(n2)N(c2ccccc2)C(=O)N(c2ccc(OC)cc2)C3)cc1

inhibition ([19]; concentration not given here): 74%
SMILES: c1ccc(Cn2ccc3cc(Nc4ncnc5ccccc45)ccc32)cc1

IC50 [20]: 213 nM
SMILES: CS(=O)(=O)N1CCC(COc2ccc3ncnc(Nc4ccc(OCc5ccccn5)c(Cl)c4)c3c2)C1 (centres undefined)

IC50 [8]: 578 nM
SMILES: Nc1cc2ncnc(NCc3ccccc3)c2cn1

IC50 [23]: 52.9 nM
SMILES: Nc1ncnc(Nc2ccc3c(cnn3Cc3cccc(F)c3)c2)c1C=NNCC(F)(F)F

IC50 [20]: 39 nM
SMILES: CN(C)CC(=O)N1CCC(Oc2ccc3ncnc(Nc4ccc(OCc5ccccn5)c(Cl)c4)c3c2)CC1

IC50 [19]: 3 nM
SMILES: COc1cc2ncnc(Nc3ccc4[nH]ccc4c3)c2cc1OC

IC50 [25]: > 100000 nM
IC50 [26]: > 100000 nM
SMILES: CSc1nc(-c2ccc(F)cc2)c(-c2ccnc(NC(C)=O)c2)n1CCOCCO

IC50 [27]: > 50000 nM
SMILES: CCNC(=O)Nc1nc2nc(NCCCCN(CC)CC)ncc2cc1-c1cc(OC)cc(OC)c1

IC50 [28]: 4.45 nM
SMILES: C=C=CCCCCCOc1cc2c(Nc3ccc(F)c(Cl)c3)ncnc2cc1OC
GI50 [18]: 586 nM

IC50 [15]: 23 nM
SMILES: CNC(=O)[C@H]1C[C@H](Oc2cc3c(Nc4cccc(Cl)c4F)ncnc3cc2OC)CCN1C
